Laboratory results: ChEMBL document CHEMBL3885861, “Open TG-GATES”

Species: Rattus norvegicus
Experiment: Open TG-GATES - Regimen: Single
Format: toxicity, organism-based, Sprague-Dawley
Design: regimen Single, gender Male, age 6 weeks
Settings: in vivo, po, 150 mg/kg, route gavage, dose level High; for APTT / Bas / Eos / Fbg / Hb / Ht / Lym / MCH / MCHC / MCV / Mono / Neu / PT / Plat / RBC / Ret / WBC: tissue Blood; for KIDNEY_L / KIDNEY_R / KIDNEY_TOTAL: tissue Kidney; for LIVER: tissue Liver; for A/G / ALP / ALT / AST / BUN / CRE / Ca / Cl / DBIL / GLC / IP / K / LDH / Na / PL / RALB / TBIL / TC / TG / TP / gamma-GTP: tissue Plasma

`CC(C)C(=O)Nc1ccc([N+](=O)[O-])c(C(F)(F)F)c1` [FLUTAMIDE] was tested, and the TERMINAL_BW (3 h) was 210.6 g, the APTT (3 h) was 19.7 s and the Bas (3 h) was 0%. For the same compound, the Eos (3 h) was 0.8%, the Fbg (3 h) was 220.4 mg/dL and the Hb (3 h) was 13.3 g/dL. It also gave a Ht (3 h) of 38.7%, a Lym (3 h) of 75% and an MCH (3 h) of 21.5 pg. For the same compound, the MCHC (3 h) was 34.4%, the MCV (3 h) was 62.6 fL and the Mono (3 h) was 3.6%. The Neu (3 h) was 19.8%, the PT (3 h) was 13 s and the Plat (3 h) was 121.6 x10_4/uL. It also gave an RBC (3 h) of 617.2 x10_4/ul, a Ret (3 h) of 7.5% and a WBC (3 h) of 89.1 x10_2/uL. For the same compound, the KIDNEY_L (3 h) was 0.9 g, the KIDNEY_R (3 h) was 0.9 g and the KIDNEY_TOTAL (3 h) was 1.8 g. For the same compound, the LIVER (3 h) was 9.3 g, the A/G (3 h) was 1.4 and the ALP (3 h) was 936.4 IU/L. It also gave an ALT (3 h) of 35.4 IU/L, an AST (3 h) of 69.8 IU/L and a BUN (3 h) of 9.4 mg/dL. It also gave a CRE (3 h) of 0.4 mg/dL, a Ca (3 h) of 10.6 mg/dL and a Cl (3 h) of 102.8 meq/L. It also gave a DBIL (3 h) of 0.1 mg/dL, a GLC (3 h) of 212.8 mg/dL and an IP (3 h) of 9.6 mg/dL. It also gave a K (3 h) of 3.7 meq/L, an LDH (3 h) of 158.4 IU/L and a Na (3 h) of 140.8 meq/L. The PL (3 h) was 152 mg/dL, the RALB (3 h) was 3.4 g/dL and the TBIL (3 h) was 0.2 mg/dL. The TC (3 h) was 78 mg/dL, the TG (3 h) was 77.4 mg/dL and the TP (3 h) was 5.7 g/dL. The gamma-GTP (3 h) was 1.4 IU/L, the TERMINAL_BW (6 h) was 207.7 g and the APTT (6 h) was 18.6 s. For the same compound, the Bas (6 h) was 0%, the Eos (6 h) was 0.6% and the Fbg (6 h) was 213 mg/dL. It also gave a Hb (6 h) of 13.4 g/dL, a Ht (6 h) of 38.9% and a Lym (6 h) of 79.6%. The MCH (6 h) was 21.3 pg, the MCHC (6 h) was 34.4% and the MCV (6 h) was 62.1 fL. The Mono (6 h) was 1.4%, the Neu (6 h) was 17.8% and the PT (6 h) was 12.7 s. The Plat (6 h) was 127.8 x10_4/uL, the RBC (6 h) was 626.6 x10_4/ul and the Ret (6 h) was 7.3%. The WBC (6 h) was 62.5 x10_2/uL, the KIDNEY_L (6 h) was 0.9 g and the KIDNEY_R (6 h) was 0.9 g. It also gave a KIDNEY_TOTAL (6 h) of 1.9 g, an LIVER (6 h) of 9.2 g and an A/G (6 h) of 1.6. For the same compound, the ALP (6 h) was 813 IU/L, the ALT (6 h) was 32.4 IU/L and the AST (6 h) was 63.8 IU/L. It also gave a BUN (6 h) of 11.2 mg/dL, a CRE (6 h) of 0.3 mg/dL and a Ca (6 h) of 10.8 mg/dL. It also gave a Cl (6 h) of 99.2 meq/L, a DBIL (6 h) of 0.08 mg/dL and a GLC (6 h) of 238.4 mg/dL. It also gave an IP (6 h) of 9.7 mg/dL, a K (6 h) of 3.8 meq/L and an LDH (6 h) of 132.6 IU/L. For the same compound, the Na (6 h) was 139.2 meq/L, the PL (6 h) was 148.6 mg/dL and the RALB (6 h) was 3.5 g/dL. For the same compound, the TBIL (6 h) was 0.1 mg/dL, the TC (6 h) was 84.4 mg/dL and the TG (6 h) was 33.2 mg/dL. It also gave a TP (6 h) of 5.7 g/dL and a gamma-GTP (6 h) of 1 IU/L.
